Counter-ions that a name gives are not always drawn.
Experiments:
human cathepsin S = molecular target: T1, human cathepsin S (Homo sapiens, UniProt P25774); assay: Measurement of in vitro human cathepsin S inhibitory activity; type: biochemical; settings: substrate VVR-AMC 40 μM, pH 4.5, 37° C.; read-out: Dat1: IC50 value of human cathepsin S inhibitory activity
T1 construct: purchased R&D 1183-CY-010
Protocol: Test Example 1: Measurement of In Vitro Human Cathepsin S Inhibitory Activity
To a 96-well plate, 5 μL of human cathepsin S enzyme (R&D 1183-CY-010) was added so as to be 20 ng/well. Next, with assay buffer (50 mM sodium acetate, 250 mM sodium chloride, and 5 mM dithiothreitol (DTT), pH=4.5), a test compound (10 mM DMSO solution) was diluted 10-fold dilution series with 5 steps so that a final concentration becomes 0.1 nM to 1 μM or diluted 3-fold dilution series with 7 steps so that a final concentration becomes 0.01 nM to 10 nM, and 10 μL thereof was added to the well (final DMSO concentration was 0.1%), followed by addition of 25 μL of synthetic substrate VVR-AMC (Peptide Institute 3211-V) so that a final concentration becomes 40 μM, and thereby an enzymatic reaction was initiated. The fluorescence intensity (excitation wavelength: 380 nm, fluorescence wavelength: 460 nm) was measured at 37° C. for 5 to 10 minutes from the start of the reaction using a spectrofluorophotometer (SPECTRAMAX GEMINI, Molecular Devices), and a reaction rate when linearity was recognized (5 minutes) was obtained for each concentration of the test compound. An inhibition rate at each concentration was defined by suppressing a reaction rate at the time of non-addition of an enzyme without adding the test compound and a reaction rate at the time of addition of an enzyme without adding the test compound by 100% inhibition and 0% inhibition, respectively, and therefore an IC50 value was calculated by a sigmoid Emax nonlinear regression method. In the table, Ex represents Example compound No., and Dat1 represents the IC50 value (nM) of human cathepsin S inhibitory activity.

[1] = tested on: MHC class II expression in B cells of peripheral blood; assay: Ex vivo MHC class II expression inhibitory effect using mouse peripheral blood after oral administration; type: in vivo; settings: male C57BL/6J mice, 0.3 mg/kg oral, peripheral blood after 6 hours, LPS 100 μg/mL 15 hours
Protocol: Test Example 3: Evaluation of Ex Vivo MHC Class II Expression Inhibitory Effect Using Mouse Peripheral Blood
The expression inhibitory effect of MHC class II molecules was evaluated in an ex vivo system.
The test compound was orally administered to male C57BL/6J mice (Charles River Laboratories Japan, Inc.), and an inhibition effect with respect to an increase in the expression of MHC class II in B cells of peripheral blood after oral administration was examined. That is, 10 mL/kg of the test compound dissolved in a vehicle [30% propylene glycol solvent {propylene glycol:hydrogenated castor oil (HCO40): Tween 80=4:2:1}/HCl (2 equivalents to the test compound)/water] was orally administered to male C57BL/6J mice (dose: 0.3 mg/kg, 4 subjects per group), and peripheral blood was recovered after 6 hours. To 90 μL of the peripheral blood, 10 μL of PBS or 10 μL (final concentration 100 μg/mL) of LPS (Sigma L4005) was added, and the culturing was carried out at 37° C. under 5% CO2 for 15 hours. […] After washing, using the flow cytometry system (FACSCanto II, BD BIOSCIENCES), an expression level of MHC class II on a surface of B220 positive B cells was measured with an average fluorescence intensity of FITC (hereinafter referred to as MFI) as an index. […]

[2] = tested on: MHC class II expression in B cells; assay: Inhibitory effect on in vitro MHC class II expression using mouse splenocytes (LPS-stimulated, B220 positive B cells); type: cell-based; settings: B-cell, C57BL/6J mouse splenocytes, LPS 2 μg/mL, 48 hours, YAe antibody, read-out: Dat2: IC50 value, inhibition of MHC class II expression
From the text: Test Example 2: Evaluation of Inhibitory Effect on In Vitro MHC Class II Expression Using Mouse Splenocytes (Cell Evaluation System)
In antigen-presenting cells, inhibition of cathepsin S suppresses expression of MHC class II molecules. As a result, suppression of antigen presentation to CD4-positive T cells causes a deterioration in the immune response to foreign antigens. In regard to an increase in MHC class II expression in B cells, the inhibitory effect of the compound of the formula (I) was examined.
Splenocytes collected from male C57BL/6J mice (Charles River Laboratories Japan, Inc.) were seeded in a 96-well plate by 1×10^5 cells/well. With RPMI 1640 medium (containing 10% fetal bovine serum (FCS), 5×10^−5 M 2-mercaptoethanol, 50 IU/mL penicillin, and 50 μg/mL streptomycin), 10 mM DMSO solution of the test compound was diluted 5-fold dilution series with 9 steps so that a final concentration becomes […] to 10 μM, or diluted 5-fold dilution series with 12 steps so that a final concentration becomes 0.205 pM to 10 μM (final DMSO concentration is 0.1%), and added. At the same time, LPS (Sigma L4005) was added to the well so that the final concentration becomes 2 μg/mL, and the cells were cultured at 37° C. under 5% CO2 for 48 hours. After culturing, the cells were stained with biotin-labeled YAe antibody (EBIOSCIENCE 13-5741-85) at 4° C. for 20 minutes, and washed. The cells were further stained with FITC fluorochrome labeled anti-mouse B220 antibody (BD BIOSCIENCES 553088) and PE fluorochrome labeled streptavidin (BD BIOSCIENCES 554061) for 20 minutes at 4° C. Therefore, an expression level (fluorescence intensity of YAe-biotin/streptavidin-PE) of MHC class II bound to the Ea peptide in B220 positive B cells was measured by using a flow cytometry system (Guava EasyCyte Plus System, Millipore). An inhibition rate at each concentration was defined by suppressing a value at the time of non-stimulation of LPS without addition of the test compound and a value at the time of stimulation of LPS without addition of the test compound by 100% inhibition and 0% inhibition, respectively, and therefore an IC50 value was calculated by the sigmoid Emax nonlinear regression method. In the table, Ex represents Example compound No., and Dat2 represents the IC50 value (nM).

[3] = tested on: NZB/W F1 mice (SLE-like disease); assay: Inhibitory effect on SLE-like disease onset in spontaneous onset model using NZB/W F1 mice; type: in vivo, mouse; settings: NZB/W F1 female mice
From the text: Test Example 4: Evaluation of Inhibitory Effect on SLE-Like Disease Onset in Spontaneous Onset Model Using NZB/W F1 Mice
NZB/W F1 mice (Japan SLC, Inc.) is used as a model of SLE spontaneously developing a disease condition close to humans (“JAMA”, 1966, Vol. 195, p. 145; “Advances in Immunology”, 1985, Vol. 37, p. 269-390; “Journal of Biomedicine and Biotechnology”, 2011, Vol. 2011, 271694).
NZB/W F1 female mice were divided into groups according to urine protein values (creatinine corrected value), anti-double stranded DNA (dsDNA) antibody value (IgG) in plasma, an expression level of MHC class II in B cells of peripheral blood, and body weight at age of 19 weeks. At this time, individuals with urine protein values (creatinine corrected value) of 3 or more were excluded. From age of 20 weeks, the test compound was orally administered twice a day, and then urine collection and blood collection were performed over time. The change in urine protein value and anti-dsDNA antibody value over time were evaluated.
In the above test, anti-dsDNA IgG antibody value in plasma generated in association with SLE-like disease was measured by ELISA method (ALPHA DIAGNOSTIC 5120). In geometric mean values of the antibody value at age of 28 weeks and age of 32 weeks of each individual, a geometric mean value of 10 vehicle-administered subjects was 216662 U/mL, whereas a geometric mean value of 10 subjects administered with 1 mg/kg b.i.d. of the compound of Example 2 was 26827 U/mL, which is a low value having a significant difference (P value=0.0009, Dunnett's multiple comparison). In addition, urine protein values (creatinine corrected value) at age of 40 weeks were measured. A geometric mean value of the 10 vehicle-administered subjects was 13.0, whereas a geometric mean value of the 10 subjects administered with 1 mg/kg b.i.d. of the compound of Example 2 was 0.7, which is a low value having a significant difference (P value=0.0005, Dunnett's multiple comparison).

T1 sequence (P25774 115-331): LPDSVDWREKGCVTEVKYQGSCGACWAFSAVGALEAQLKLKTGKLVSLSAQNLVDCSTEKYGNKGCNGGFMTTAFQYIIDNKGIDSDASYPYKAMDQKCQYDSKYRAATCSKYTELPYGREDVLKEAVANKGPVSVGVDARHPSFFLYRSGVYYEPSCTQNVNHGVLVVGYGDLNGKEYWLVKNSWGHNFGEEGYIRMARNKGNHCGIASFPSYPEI

## CN1CCN(Cc2ccc(C(F)(F)[C@@H]3C[C@@H](C(=O)NC4(C#N)CC4)N(C(=O)C4(C)CC4)C3)c(C(F)(F)F)c2)CC1 (as salt: succinate) [Example 18, (4R)—N-(1-cyanocyclopropyl)-4-(difluoro{4-[(4-methylpiperazin-1-yl)methyl]-2-(trifluoromethyl)phenyl}methyl)-1-[(1-methylcyclopropyl)carbonyl]-L-prolinamide]
other
  melting point: 134.3 °C

## CN1CCN(Cc2ccc(C(F)(F)C3C[C@@H](C(=O)NC4(C#N)CC4)N(C(=O)C4(C)CC4)C3)c(C(F)(F)F)c2)CC1 (mixture of isomers) [Example 8, N-(1-cyanocyclopropyl)-4-(difluoro{4-[(4-methylpiperazin-1-yl)methyl]-2-(trifluoromethyl)phenyl}methyl)-1-[(1-methylcyclopropyl)carbonyl]-L-prolinamide dihydrochloride]
Human cathepsin S
  IC50: 0.88 nM
[1]
  inhibition rate of ΔMFI (increase in expression of MHC class II on B220 positive B cells): 41%
[2]
  IC50: 0.59 nM

## CN1CCN(Cc2ccc(C(F)(F)[C@@H]3C[C@@H](C(=O)NC4(C#N)CC4)N(C(=O)C4(C)CC4)C3)c(C(F)(F)F)c2)CC1 [Example 2, (4R)—N-(1-cyanocyclopropyl)-4-(difluoro{4-[(4-methylpiperazin-1-yl)methyl]-2-(trifluoromethyl)phenyl}methyl)-1-[(1-methylcyclopropyl)carbonyl]-L-prolinamide dihydrochloride]
Human cathepsin S
  IC50: 0.81 nM
[2]
  IC50: 0.65 nM
[3]; 1 mg/kg b.i.d. oral
  effect on SLE-like disease onset: has the effect of suppressing the SLE-like disease onset
[3]; 1 mg/kg b.i.d. oral from age of 20 weeks, age of 28 weeks and 32 weeks, 10 subjects, vehicle 216662 U/mL, P value=0.0009
  anti-dsDNA IgG antibody value in plasma, geometric mean value: 26827 U/mL
[3]; 1 mg/kg b.i.d. oral, age of 40 weeks, 10 subjects, vehicle 13.0, P value=0.0005
  urine protein value (creatinine corrected value), geometric mean value: 0.7

## CN1CCN(Cc2ccc(C(F)(F)[C@@H]3C[C@@H](C(=O)NC4(C#N)CC4)N(C(=O)C4(C(F)(F)F)CC4)C3)c(C(F)(F)F)c2)CC1 [Example 4, (4R)—N-(1-cyanocyclopropyl)-4-(difluoro{4-[(4-methylpiperazin-1-yl)methyl]-2-(trifluoromethyl)phenyl}methyl)-1-{[1-(trifluoromethyl)cyclopropyl]carbonyl}-L-prolinamide]
Human cathepsin S
  IC50: 1 nM
[2]
  IC50: 0.62 nM

## CCN1CCN(Cc2ccc(C(F)(F)[C@@H]3C[C@@H](C(=O)NC4(C#N)CC4)N(C(=O)C4(C(F)(F)F)CC4)C3)c(C(F)(F)F)c2)CC1 [Example 13]
Human cathepsin S
  IC50: 1 nM
[2]
  IC50: 0.37 nM

## CCN1CCN(Cc2ccc(C(F)(F)[C@@H]3C[C@@H](C(=O)NC4(C#N)CC4)N(C(=O)C4(C)CC4)C3)c(C(F)(F)F)c2)CC1 [Example 14]
Human cathepsin S
  IC50: 0.43 nM
[2]
  IC50: 0.6 nM
